Measurements as given in patent US10150760B2, “Compounds for use in preparing heterocyclic triazole agonists of the APJ receptor” (AMGEN INC., priority 2016, dated 2018).
pEC50: −log10 of the molar value.

Target: human APJ receptor (Homo sapiens (Human), UniProt P35414)
Experiment: [35S]GTPγS binding assay on membranes from CHO cells stably expressing human APJ receptor
Format: biochemical
Conditions: read-out: Activity hAPJ SPA EC50 IP
How it was run: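 Agonist-driven [35S]GTPγS (0.2 nM) binding was measured over 90 min at room temperature on human APJ-expressing CHO membranes with bead capture, in buffer containing 3 μM GDP, 200 mM NaCl and 5 mM MgCl2 (pH 7.5). Excess unlabelled GTPγS (100 μM) gave nonspecific signal; EC50 from non-linear fits.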

human APJ receptor, sequence (P35414 whole entry): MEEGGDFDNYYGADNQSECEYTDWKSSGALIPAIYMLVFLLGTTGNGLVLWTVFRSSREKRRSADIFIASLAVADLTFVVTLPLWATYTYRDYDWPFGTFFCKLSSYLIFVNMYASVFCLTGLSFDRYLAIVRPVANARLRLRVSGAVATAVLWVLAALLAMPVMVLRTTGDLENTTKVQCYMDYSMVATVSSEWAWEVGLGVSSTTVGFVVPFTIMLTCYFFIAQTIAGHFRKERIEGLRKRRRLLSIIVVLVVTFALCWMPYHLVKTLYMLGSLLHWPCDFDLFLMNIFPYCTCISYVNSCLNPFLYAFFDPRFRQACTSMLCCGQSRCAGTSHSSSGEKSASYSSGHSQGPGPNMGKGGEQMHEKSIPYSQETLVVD

Row | Molecule | pEC50
1 | COc1cccc(OC)c1-n1c(NS(=O)(=O)[C@@H](C)[C@H](C)c2ncc(Cl)cn2)nnc1[C@@H]1CCO[C@@H]1C (single isomer, unassigned) [Example 118.0, (2S,3R)-3-(5-chloropyrimidin-2-yl)-N-(4-(2,6-dimethoxyphenyl)-5-((2R,3S)-2-methyltetrahydrofuran-3-yl)-4H-1,2,4-triazol-3-yl)butane-2-sulfonamide or (2S,3R)-3-(5-chloropyrimidin-2-yl)-N-(4-(2,6-dimethoxyphenyl)-5-((2S,3R)-2-methyltetrahydrofuran-3-yl)-4H-1,2,4-triazol-3-yl)butane-2-sulfonamide] | 6.57
2 | COc1cccc(OC)c1-n1c(NS(=O)(=O)[C@@H](C)[C@H](OC)c2ncc(Cl)cn2)nnc1[C@H]1CCCOC1 (single isomer, unassigned) [Example 64.0, (1R,2S)-1-(5-chloropyrimidin-2-yl)-N-(4-(2,6-dimethoxyphenyl)-5-((R)-tetrahydro-2H-pyran-3-yl)-4H-1,2,4-triazol-3-yl)-1-methoxypropane-2-sulfonamide or (1R,2S)-1-(5-chloropyrimidin-2-yl)-N-(4-(2,6-dimethoxyphenyl)-5-((S)-tetrahydro-2H-pyran-3-yl)-4H-1,2,4-triazol-3-yl)-1-methoxypropane-2-sulfonamide] | 7.54
3 | COc1cccc(OC)c1-n1c(NS(=O)(=O)[C@@H](C)[C@H](C)c2ncc(C)cn2)nnc1[C@@H]1CCCN(C)C1 (single isomer, unassigned) [Example 270.0, (2S,3R)-N-(4-(2,6-dimethoxyphenyl)-5-((R)-1-methylpiperidin-3-yl)-4H-1,2,4-triazol-3-yl)-3-(5-methylpyrimidin-2-yl)butane-2-sulfonamide or (2S,3R)-N-(4-(2,6-dimethoxyphenyl)-5-((S)-1-methylpiperidin-3-yl)-4H-1,2,4-triazol-3-yl)-3-(5-methylpyrimidin-2-yl)butane-2-sulfonamide] | 6.39
4 | COc1cccc(OC)c1-n1c(NS(=O)(=O)[C@@H](C)[C@H](OC)c2ncc(Cl)cn2)nnc1[C@H]1CCCCO1 (single isomer, unassigned) [Example 83.0, (1R,2S)-1-(5-chloropyrimidin-2-yl)-N-(4-(2,6-dimethoxyphenyl)-5-((S)-tetrahydro-2H-pyran-2-yl)-4H-1,2,4-triazol-3-yl)-1-methoxypropane-2-sulfonamide or (1R,2S)-1-(5-chloropyrimidin-2-yl)-N-(4-(2,6-dimethoxyphenyl)-5-((R)-tetrahydro-2H-pyran-2-yl)-4H-1,2,4-triazol-3-yl)-1-methoxypropane-2-sulfonamide] | 8.00
5 | (1S,2S)-1-(5-chloro-2-pyrimidinyl)-N-(4-cyclopropyl-5-((2S,5S)-5-methyltetrahydro-2-furanyl)-4H-1,2,4-triazol-3-yl)-1-(2-propanyloxy)-2-propanesulfonamide or (1S,2S)-1-(5-chloro-2-pyrimidinyl)-N-(4-cyclopropyl-5-((2R,5R)-5-methyltetrahydro-2-furanyl)-4H-1,2,4-triazol-3-yl)-1-(2-propanyloxy)-2-propanesulfonamide [Example 352.0] | 5.83
6 | CO[C@H](c1ncc(Cl)cn1)[C@H](C)S(=O)(=O)Nc1nnc([C@H]2CCCOC2)n1C1(C)CC1 (single isomer, unassigned) [Example 126.0, (1R,2S)-1-(5-chloropyrimidin-2-yl)-1-methoxy-N-(4-(1-methylcyclopropyl)-5-((R)-tetrahydro-2H-pyran-3-yl)-4H-1,2,4-triazol-3-yl)propane-2-sulfonamide or (1R,2S)-1-(5-chloropyrimidin-2-yl)-1-methoxy-N-(4-(1-methylcyclopropyl)-5-((S)-tetrahydro-2H-pyran-3-yl)-4H-1,2,4-triazol-3-yl)propane-2-sulfonamide] | 6.32
7 | CO[C@H](c1ncc(Cl)cn1)[C@H](C)S(=O)(=O)Nc1nnc([C@H]2CCCCO2)n1C1(C)CC1 (single isomer, unassigned) [Example 113.0, (1R,2S)-1-(5-chloropyrimidin-2-yl)-1-methoxy-N-(4-(1-methylcyclopropyl)-5-((S)-tetrahydro-2H-pyran-2-yl)-4H-1,2,4-triazol-3-yl)propane-2-sulfonamide or (1R,2S)-1-(5-chloropyrimidin-2-yl)-1-methoxy-N-(4-(1-methylcyclopropyl)-5-((R)-tetrahydro-2H-pyran-2-yl)-4H-1,2,4-triazol-3-yl)propane-2-sulfonamide] | 6.59
8 | COc1ncnc(OC)c1-n1c(NS(=O)(=O)[C@@H](C)[C@@H](OC(C)C)c2ncc(Cl)cn2)nnc1[C@H]1CCC(C)(C)O1 (single isomer, unassigned) [Example 280.0, (1S,2S)-1-(5-chloropyrimidin-2-yl)-N-(4-(4,6-dimethoxypyrimidin-5-yl)-5-((R)-5,5-dimethyltetrahydrofuran-2-yl)-4H-1,2,4-triazol-3-yl)-1-isopropoxypropane-2-sulfonamide or (1S,2S)-1-(5-chloropyrimidin-2-yl)-N-(4-(4,6-dimethoxypyrimidin-5-yl)-5-((S)-5,5-dimethyltetrahydrofuran-2-yl)-4H-1,2,4-triazol-3-yl)-1-isopropoxypropane-2-sulfonamide] | 8.12
9 | (1S,2S)-1-isopropoxy-1-(5-methylpyrazin-2-yl)-N-(4-(tetrahydro-2H-pyran-4-yl)-5-((R)-tetrahydrofuran-2-yl)-4H-1,2,4-triazol-3-yl)propane-2-sulfonamide or (1S,2S)-1-isopropoxy-1-(5-methylpyrazin-2-yl)-N-(4-(tetrahydro-2H-pyran-4-yl)-5-((S)-tetrahydrofuran-2-yl)-4H-1,2,4-triazol-3-yl)propane-2-sulfonamide [Example 260.0] | < 5.38
10 | CO[C@H](c1cnc(C)cn1)[C@H](C)S(=O)(=O)Nc1nnc([C@H]2CCCOC2)n1C1(C)CC1 (single isomer, unassigned) [Example 130.0, (1R,2S)-1-methoxy-N-(4-(1-methylcyclopropyl)-5-((R)-tetrahydro-2H-pyran-3-yl)-4H-1,2,4-triazol-3-yl)-1-(5-methylpyrazin-2-yl)propane-2-sulfonamide or (1R,2S)-1-methoxy-N-(4-(1-methylcyclopropyl)-5-((S)-tetrahydro-2H-pyran-3-yl)-4H-1,2,4-triazol-3-yl)-1-(5-methylpyrazin-2-yl)propane-2-sulfonamide] | 5.74
11 | (2S,3R)-N-(4-(1,3-dimethoxy-2-propanyl)-5-((2R,5R)-5-methyltetrahydro-2-furanyl)-4H-1,2,4-triazol-3-yl)-3-(5-methoxy-2-pyrimidinyl)-2-butanesulfonamide or (2S,3R)-N-(4-(1,3-dimethoxy-2-propanyl)-5-((2S,5S)-5-methyltetrahydro-2-furanyl)-4H-1,2,4-triazol-3-yl)-3-(5-methoxy-2-pyrimidinyl)-2-butanesulfonamide [Example 370.0] | 6.21
12 | COc1cccc(OC)c1-n1c(NS(=O)(=O)[C@@H](C)[C@H](C)c2ccc(Cl)cn2)nnc1[C@@H]1COCCO1 (single isomer, unassigned) [Example 268.0, (2S,3R)-3-(5-chloropyridin-2-yl)-N-(4-(2,6-dimethoxyphenyl)-5-((R)-1,4-dioxan-2-yl)-4H-1,2,4-triazol-3-yl)butane-2-sulfonamide or (2S,3R)-3-(5-chloropyridin-2-yl)-N-(4-(2,6-dimethoxyphenyl)-5-((S)-1,4-dioxan-2-yl)-4H-1,2,4-triazol-3-yl)butane-2-sulfonamide] | 8.72
13 | COc1cccc(OC)c1-n1c(NS(=O)(=O)[C@@H](C)[C@H](OC)c2ncc(Cl)cn2)nnc1[C@H]1CCC(C)(C)O1 (single isomer, unassigned) [Example 109.0, (1R,2S)-1-(5-chloropyrimidin-2-yl)-N-(4-(2,6-dimethoxyphenyl)-5-((S)-5,5-dimethyltetrahydrofuran-2-yl)-4H-1,2,4-triazol-3-yl)-1-methoxypropane-2-sulfonamide or (1R,2S)-1-(5-chloropyrimidin-2-yl)-N-(4-(2,6-dimethoxyphenyl)-5-((R)-5,5-dimethyltetrahydrofuran-2-yl)-4H-1,2,4-triazol-3-yl)-1-methoxypropane-2-sulfonamide] | 9.80
14 | COc1cccc(OC)c1-n1c(NS(=O)(=O)[C@@H](C)[C@H](C)c2ccc(Cl)cn2)nnc1[C@@H]1COCCO1 (single isomer, unassigned) [Example 267.0, (2S,3R)-3-(5-chloropyridin-2-yl)-N-(4-(2,6-dimethoxyphenyl)-5-((R)-1,4-dioxan-2-yl)-4H-1,2,4-triazol-3-yl)butane-2-sulfonamide or (2S,3R)-3-(5-chloropyridin-2-yl)-N-(4-(2,6-dimethoxyphenyl)-5-((S)-1,4-dioxan-2-yl)-4H-1,2,4-triazol-3-yl)butane-2-sulfonamide] | 8.68
15 | (1R,2S)-1-(5-chloropyrimidin-2-yl)-N-(4-(2,6-dimethoxyphenyl)-5-((R)-1,1-dioxidotetrahydrothiophen-3-yl)-4H-1,2,4-triazol-3-yl)-1-methoxypropane-2-sulfonamide or (1R,2S)-1-(5-chloropyrimidin-2-yl)-N-(4-(2,6-dimethoxyphenyl)-5-((S)-1,1-dioxidotetrahydrothiophen-3-yl)-4H-1,2,4-triazol-3-yl)-1-methoxypropane-2-sulfonamide [Example 187.0] | 6.46
16 | (1R,2S)-1-(5-chloropyrimidin-2-yl)-N-(4-(2,6-dimethoxyphenyl)-5-((R)-1,4-dioxan-2-yl)-4H-1,2,4-triazol-3-yl)-1-methoxypropane-2-sulfonamide or (1R,2S)-1-(5-chloropyrimidin-2-yl)-N-(4-(2,6-dimethoxyphenyl)-5-((S)-1,4-dioxan-2-yl)-4H-1,2,4-triazol-3-yl)-1-methoxypropane-2-sulfonamide [Example 197.0] | 9.00
